Reference: patent US10328053B2 (Gilead Sciences, Inc., priority 2016, dated 2019)

Assay: Hepatic Stability Assay (in vitro half-life method)
Format: in vitro ADME
Design: dose or concentration left out as unconfirmed
Conditions: pooled cryopreserved hepatocytes, 37° C., 1×10^6 cells/mL, 0-6 hours, LC-MS/MS, 39.5 hours is the maximum detectable half life, read-out: t½ (converted)
Procedure: Hepatic Stability Assay The metabolic stability of certain compounds disclosed herein was assessed in vitro in pooled cryopreserved hepatocytes using the in vitro half-life method. Incubations were at 37° C. and final concentrations in the incubations were 1×10^6 cells/mL and […] test concentration of the compound. Aliquots were sequentially removed after 0, 1, 3 and 6 hours and analyzed by LC-MS/MS. In vitro half-life was determined by measuring the rate of disappearance of the compound and then scaled to predicted hepatic clearance using the well-stirred model. […] As such, compounds having a value of 39.5 may have a half live that exceeds 39.5 hours.

half-life [h]	SMILES
15.5	Cc1c(C(=O)C(=O)NC2(c3c[nH]nn3)CC(F)(F)C2)c2n(c1C(=O)Nc1ccnc(C(F)F)c1)CCC2 [Example 55, 7-(2-((3,3-difluoro-1-(1H-1,2,3-triazol-4-yl)cyclobutyl)amino)-2-oxoacetyl)-N-(2-(difluoromethyl)pyridin-4-yl)-6-methyl-2,3-dihydro-1H-pyrrolizine-5-carboxamide]
10.5	Cc1c(C(=O)C(=O)N[C@]2(C)C[S@+]([O-])C2)c2n(c1C(=O)Nc1ccc(F)c(F)c1)CCC2 [Example 152, N-(3,4-difluorophenyl)-6-methyl-7-(2-(((1s,3s)-3-methyl-1-oxidothietan-3-yl)amino)-2-oxoacetyl)-2,3-dihydro-1H-pyrrolizine-5-carboxamide]
1.9	Cc1c(C(=O)C(=O)NC2(C(=O)N(C)C)CC(F)(F)C2)c2n(c1C(=O)Nc1ccc(F)c(F)c1)CCC2 [Example 125, N-(3,4-difluorophenyl)-7-(2-((1-(dimethylcarbamoyl)-3,3-difluorocyclobutyl)amino)-2-oxoacetyl)-6-methyl-2,3-dihydro-1H-pyrrolizine-5-carboxamide]
22.6	CNC(=O)C1(NC(=O)C(=O)c2c(C)c(C(=O)Nc3ccc(F)c(F)c3)n3c2C[C@H]2C[C@H]23)CC(F)(F)C1 [Example 96, (1aR,6aR)-5-(2-((3,3-difluoro-1-(methylcarbamoyl)cyclobutyl)amino)-2-oxoacetyl)-N-(3,4-difluorophenyl)-4-methyl-1,1a,6,6a-tetrahydrocyclopropa[b]pyrrolizine-3-carboxamide]
8.2	Cc1c(C(=O)C(=O)NC2(c3c[nH]nn3)CC2)c2n(c1C(=O)Nc1cc(F)c(F)c(F)c1)CCC2 [Example 26, 7-(2-((1-(1H-1,2,3-triazol-4-yl)cyclopropyl)amino)-2-oxoacetyl)-6-methyl-N-(3,4,5-trifluorophenyl)-2,3-dihydro-1H-pyrrolizine-5-carboxamide]
6.6	Cc1c(C(=O)C(=O)NC2(C#N)CC(F)(F)C2)c2n(c1C(=O)Nc1ccc(F)c(Cl)c1)CCC2 [Example 130, N-(3-chloro-4-fluorophenyl)-7-(2-((1-cyano-3,3-difluorocyclobutyl)amino)-2-oxoacetyl)-6-methyl-2,3-dihydro-1H-pyrrolizine-5-carboxamide]
15	Cc1c(C(=O)C(=O)N[C@H](C)C(F)(F)F)c2n(c1C(=O)Nc1ccc(F)c(Cl)c1)CCC2 [Example 2, (R)—N-(3-chloro-4-fluorophenyl)-6-methyl-7-(2-oxo-2-((1,1,1-trifluoropropan-2-yl)amino)acetyl)-2,3-dihydro-1H-pyrrolizine-5-carboxamide]
5.2	CNC(=O)C1(NC(=O)C(=O)c2c(C)c(C(=O)Nc3ccc(F)c(Cl)c3)n3c2C[C@H]2C[C@H]23)CC(F)(F)C1 [Example 5, (1aR,6aR)—N-(3-chloro-4-fluorophenyl)-5-(2-((3,3-difluoro-1-(methylcarbamoyl)cyclobutyl)amino)-2-oxoacetyl)-4-methyl-1,1a,6,6a-tetrahydrocyclopropa[b]pyrrolizine-3-carboxamide]
7.3	CNC(=O)C1(NC(=O)C(=O)c2c(C)c(C(=O)Nc3ccc(F)c(Cl)c3)n3c2C[C@@H]2C[C@@H]23)CC(F)(F)C1 [Example 4, (1aS,6aS)—N-(3-chloro-4-fluorophenyl)-5-(2-((3,3-difluoro-1 (methylcarbamoyl)cyclobutyl)amino)-2-oxoacetyl)-4-methyl-1,1a,6,6a-tetrahydrocyclopropa[b]pyrrolizine-3-carboxamide]
17.9	Cc1c(C(=O)C(=O)NC2(c3c[nH]nn3)CC(F)(F)C2)c2n(c1C(=O)Nc1ccnc(C(F)F)c1F)C[C@H](F)C2 [Example 134, (R)-7-(2-((3,3-difluoro-1-(1H-1,2,3-triazol-4-yl)cyclobutyl)amino)-2-oxoacetyl)-N-(2-(difluoromethyl)-3-fluoropyridin-4-yl)-2-fluoro-6-methyl-2,3-dihydro-1H-pyrrolizine-5-carboxamide]
16.1	Cc1c(C(=O)C(=O)NC2(C)CS(=O)(=O)C2)c2n(c1C(=O)Nc1cc(F)c(F)c(F)c1)[C@@H]1C[C@@H]1C2 [Example 73, (1aR,6aR)-4-methyl-5-(2-((3-methyl-1,1-dioxidothietan-3-yl)amino)-2-oxoacetyl)-N-(3,4,5-trifluorophenyl)-1,1a,6,6a-tetrahydrocyclopropa[b]pyrrolizine-3-carboxamide]
19.8	Cc1c(C(=O)C(=O)NC2(C(N)=O)CC(F)(F)C2)c2n(c1C(=O)Nc1ccc(F)c(F)c1)CCC2 [Example 121, 7-(2-((1-carbamoyl-3,3-difluorocyclobutyl)amino)-2-oxoacetyl)-N-(3,4-difluorophenyl)-6-methyl-2,3-dihydro-1H-pyrrolizine-5-carboxamide]
1	Cc1c(C(=O)C(=O)NC2(CN3CC4(COC4)C3)CC(F)(F)C2)c2n(c1C(=O)Nc1ccc(F)c(Cl)c1)CCC2 [Example 10, 7-(2-((1-((2-oxa-6-azaspiro[3.3]heptan-6-yl)methyl)-3,3-difluorocyclobutyl)amino)-2-oxoacetyl)-N-(3-chloro-4-fluorophenyl)-6-methyl-2,3-dihydro-1H-pyrrolizine-5-carboxamide]
12.5	Cc1c(C(=O)C(=O)N[C@](C)(CO)C(F)(F)F)c2n(c1C(=O)Nc1ccc(F)c(F)c1)CCC2 [Example 133, (R)—N-(3,4-difluorophenyl)-6-methyl-7-(2-oxo-2-((1,1,1-trifluoro-3-hydroxy-2-methylpropan-2-yl)amino)acetyl)-2,3-dihydro-1H-pyrrolizine-5-carboxamide]
15.2	CNC(=O)C1(NC(=O)C(=O)c2c(C)c(C(=O)Nc3ccc(F)c(Cl)c3F)n3c2CCC3)CC(F)(F)C1 [Example 127, N-(3-chloro-2,4-difluorophenyl)-7-(2-((3,3-difluoro-1-(methylcarbamoyl)cyclobutyl)amino)-2-oxoacetyl)-6-methyl-2,3-dihydro-1H-pyrrolizine-5-carboxamide]
15.2	Cc1c(C(=O)C(=O)NC2(CO)CC(F)(F)C2)c2n(c1C(=O)Nc1ccc(F)c(F)c1)CCC2 [Example 118, 7-(2-((3,3-difluoro-1-(hydroxymethyl)cyclobutyl)amino)-2-oxoacetyl)-N-(3,4-difluorophenyl)-6-methyl-2,3-dihydro-1H-pyrrolizine-5-carboxamide]
7	Cc1c(C(=O)C(=O)NC2(c3c[nH]nn3)CC2)c2n(c1C(=O)Nc1cc(F)cc(Cl)c1)CCC2 [Example 101, 7-(2-((1-(1H-1,2,3-triazol-4-yl)cyclopropyl)amino)-2-oxoacetyl)-N-(3-chloro-5-fluorophenyl)-6-methyl-2,3-dihydro-1H-pyrrolizine-5-carboxamide]
7.3	Cc1c(C(=O)C(=O)NC2(C)CS(=O)(=O)C2)c2n(c1C(=O)Nc1ccc(F)c(Cl)c1)[C@@H]1C[C@@H]1C2 [Example 71, (1aR,6aR)—N-(3-chloro-4-fluorophenyl)-4-methyl-5-(2-((3-methyl-1,1-dioxidothietan-3-yl)amino)-2-oxoacetyl)-1,1a,6,6a-tetrahydrocyclopropa[b]pyrrolizine-3-carboxamide]

SMILES	half-life [h]
Cc1c(C(=O)C(=O)N[C@H](C)C(F)(F)F)c2n(c1C(=O)Nc1ccc(F)c(Cl)c1)C(C)CC2 (single isomer, unassigned) [Example 24]	5
